The values below come from patent publication US9938257B2 (Sunshine Lake Pharma Co., Ltd., priority 2015, dated 2018).

The target of one data set is JAK1 (h) (Homo sapiens (Human), UniProt P23458). Briefly: JAK1 (h) kinase activity assay. The data set is classed as biochemical. As to the method: (§1) The above assay procedure can be used to determine the IC50 for inhibition and/or the inhibition constant, Ki. The IC50 is defined as the concentration of compound required to reduce the enzyme activity by 50% under the condition of the assay. The IC50 value is estimated by preparing a 10 point curve using a ½ log dilution series (for example, a typical curve may be prepared using the following compound concentrations: 3 μM, 1 μM, 0.3 μM, 0.1 μM, 0.03 μM, 0.01 μM, 0.003 μM, 0.001 μM, 0.0003 μM and 0 μM).
JAK1 (h) is incubated with 20 mM Tris/HCl pH 7.5, 0.2 mM EDTA, 500 μM GEEPLYWSFPAKKK, 10 mM MgAcetate and [γ-^33P-ATP] (specific activity approx. 500 cpm/pmol, concentration as required). The reaction is initiated by the addition of the MgATP mix. After incubation for 40 minutes at room temperature, the reaction is stopped by the addition of 3% phosphoric acid solution. 10 μL of the reaction is then spotted onto a P30 filtermat and washed three times for 5 minutes in 75 mM phosphoric acid and once in methanol prior to drying and scintillation counting.
(§2) The kinase assays described herein were performed at Millipore UK Ltd, Dundee Technology Park, Dundee DD2 1SW, UK.

For a further data set, the target named is JAK2 (h) (Homo sapiens (Human), UniProt O60674). Briefly: JAK2 (h) kinase activity assay. Type of data set: biochemical. As to the method:
as §1
JAK2 (h) is incubated with 8 mM MOPS pH 7.0, 0.2 mM EDTA, 100 μM […], 10 mM MgAcetate and [γ-^33P-ATP] (specific activity approx. 500 cpm/pmol, concentration as required). The reaction is initiated by the addition of the MgATP mix. After incubation for 40 minutes at room temperature, the reaction is stopped by the addition of 3% phosphoric acid solution. 10 μL of the reaction is then spotted onto a P30 filtermat and washed three times for 5 minutes in 75 mM phosphoric acid and once in methanol prior to drying and scintillation counting.
as §2

Another data set deals with Aurora-A (h) (Homo sapiens (Human), UniProt O14965). Briefly: Aurora-A (h) kinase activity assay. Type of data set: biochemical. The method, then: as §1
Aurora-A (h) is incubated with 8 mM MOPS pH 7.0, 0.2 mM EDTA, 200 μM LRRASLG (Kemptide), 10 mM MgAcetate and [γ-^33P-ATP] (specific activity approx. 500 cpm/pmol, concentration as required). The reaction is initiated by the addition of the MgATP mix. After incubation for 40 minutes at room temperature, the reaction is stopped by the addition of 3% phosphoric acid solution. 10 μL of the reaction is then spotted onto a P30 filtermat and washed three times for 5 minutes in 75 mM phosphoric acid and once in methanol prior to drying and scintillation counting.
as §2

Data set [1] in a line: Compound stability in human liver microsomes. The data set is classed as in vitro ADME. The following applies: pH 7.4; for half-life at 5 μM: human liver microsomes 0.5 mg protein/mL, compound 5 μM, NADPH 1.0 mM, 37° C., read-out: Human T1/2; for CLint scaled at 5 μM: human liver microsomes, in vivo CLint extrapolated. In outline: (§3)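 LC/MS/MS read-out of parent remaining, as % of t=0, after 0, 5, 10, 15, 30 and 60 min at 37° C. Mix: microsomes 0.5 mg/mL, test compound 5 μM, NADPH 1.0 mM, phosphate pH 7.4. Denatured microsomes served as negative control. In vivo CLint extrapolated.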

Data set [2] can be described thus: Pharmacokinetics after intravenous and oral administration in rats. The data set is classed as in vivo. To be noted: for Clearance (CL) after iv dosing / AUC(0-t) / half-life / Vd: dose 1 mg/kg, iv dosing; for F: oral bioavailability, iv dose 1 mg/kg; for AUC(0-t) / half-life / Vd: rat, plasma; for Vd: read-out: Vss. Summed up: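 IV doses generally 0.5, 1 or 2 mg/kg; oral doses in rats generally 0.5, 1, 5 or 10 mg/kg, given as solution, suspension or capsule in various vehicles. Blood sampled over 0.083 or 0.25 h to 24 h; plasma analysed by LC/MS/MS.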

A short description of data set [3]: Compound stability in rat liver microsomes. The data set is classed as in vitro ADME. To be noted: pH 7.4; for half-life at 5 μM: rat liver microsomes 0.5 mg protein/mL, compound 5 μM, NADPH 1.0 mM, 37° C., read-out: Rat T1/2; for CLint scaled at 5 μM: rat liver microsomes, in vivo CLint extrapolated. In outline: as §3
The next data set deals with FLT3 (h) (Homo sapiens (Human), UniProt P36888). Briefly: FLT3 (h) kinase activity assay. The data set is classed as biochemical. The method, then:
as §1
FLT3 (h) is incubated with 8 mM MOPS pH 7.0, 0.2 mM EDTA, […] EAIYAAPFAKKK, 10 mM MgAcetate and [γ-^33P-ATP] (specific activity approx. 500 cpm/pmol, concentration as required). The reaction is initiated by the addition of the MgATP mix. After incubation for 40 minutes at room temperature, the reaction is stopped by the addition of 3% phosphoric acid solution. 10 μL of the reaction is then spotted onto a P30 filtermat and washed three times for 5 minutes in 75 mM phosphoric acid and once in methanol prior to drying and scintillation counting.
as §2

The target of another data set is Aurora-B (h) (Homo sapiens (Human), UniProt Q96GD4). As to the kind of experiment: Aurora-B (h) kinase activity assay. The data set is classed as biochemical. The method, then:
as §1
Aurora-B (h) is incubated with 8 mM MOPS pH 7.0, 0.2 mM EDTA, 30 μM AKRRRLSSLRA, 10 mM MgAcetate and [γ-^33PATP] (specific activity approx. 500 cpm/pmol, concentration as required). The reaction is initiated by the addition of the MgATP mix. After incubation for 40 minutes at room temperature, the reaction is stopped by the addition of a 3% phosphoric acid solution. 10 μL of the reaction is then spotted onto a P30 filtermat and washed three times for 5 minutes in 75 mM phosphoric acid and once in methanol prior to drying and scintillation counting.
as §2

Molecules are shown by their SMILES.

Sequence of JAK2 (h) (O60674 whole entry): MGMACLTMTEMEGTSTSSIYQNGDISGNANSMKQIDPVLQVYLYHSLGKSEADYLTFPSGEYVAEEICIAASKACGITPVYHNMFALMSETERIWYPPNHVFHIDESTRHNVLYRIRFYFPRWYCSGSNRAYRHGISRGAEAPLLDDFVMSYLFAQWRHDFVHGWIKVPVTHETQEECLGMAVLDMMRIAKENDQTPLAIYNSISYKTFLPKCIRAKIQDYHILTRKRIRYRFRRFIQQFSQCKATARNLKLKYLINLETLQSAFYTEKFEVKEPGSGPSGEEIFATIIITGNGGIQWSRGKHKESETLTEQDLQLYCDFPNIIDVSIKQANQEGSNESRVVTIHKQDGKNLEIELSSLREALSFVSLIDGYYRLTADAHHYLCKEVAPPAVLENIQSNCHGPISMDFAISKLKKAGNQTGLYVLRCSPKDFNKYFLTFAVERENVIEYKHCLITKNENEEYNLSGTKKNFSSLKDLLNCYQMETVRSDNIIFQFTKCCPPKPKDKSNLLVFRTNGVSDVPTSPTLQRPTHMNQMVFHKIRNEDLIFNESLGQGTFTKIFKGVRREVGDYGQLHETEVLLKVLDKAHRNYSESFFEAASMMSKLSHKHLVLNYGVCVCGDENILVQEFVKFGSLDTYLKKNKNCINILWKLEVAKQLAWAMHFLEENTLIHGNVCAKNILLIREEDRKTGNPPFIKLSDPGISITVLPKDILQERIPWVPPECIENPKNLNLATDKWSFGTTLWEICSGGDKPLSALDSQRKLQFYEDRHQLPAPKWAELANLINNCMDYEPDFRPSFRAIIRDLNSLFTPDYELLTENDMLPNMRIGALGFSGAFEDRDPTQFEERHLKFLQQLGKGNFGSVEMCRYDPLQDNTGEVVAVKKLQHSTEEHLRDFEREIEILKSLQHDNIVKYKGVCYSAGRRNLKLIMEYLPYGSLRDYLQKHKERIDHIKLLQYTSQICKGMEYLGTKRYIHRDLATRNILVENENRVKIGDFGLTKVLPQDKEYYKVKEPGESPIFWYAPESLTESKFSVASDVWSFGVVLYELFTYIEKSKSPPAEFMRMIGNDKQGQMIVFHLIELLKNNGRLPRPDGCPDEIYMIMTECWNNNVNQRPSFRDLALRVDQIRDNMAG
Sequence of Aurora-A (h) (O14965 whole entry): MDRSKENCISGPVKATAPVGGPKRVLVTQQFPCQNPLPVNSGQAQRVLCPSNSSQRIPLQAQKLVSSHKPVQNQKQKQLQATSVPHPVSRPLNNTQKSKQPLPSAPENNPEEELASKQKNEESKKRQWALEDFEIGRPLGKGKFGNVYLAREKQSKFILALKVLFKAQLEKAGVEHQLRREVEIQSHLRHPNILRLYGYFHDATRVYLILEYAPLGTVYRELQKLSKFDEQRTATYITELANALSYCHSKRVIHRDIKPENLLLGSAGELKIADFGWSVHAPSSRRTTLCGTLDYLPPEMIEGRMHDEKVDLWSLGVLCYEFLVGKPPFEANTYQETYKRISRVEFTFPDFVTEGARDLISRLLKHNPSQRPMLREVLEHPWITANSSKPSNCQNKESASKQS
Sequence of Aurora-B (h) (Q96GD4 whole entry): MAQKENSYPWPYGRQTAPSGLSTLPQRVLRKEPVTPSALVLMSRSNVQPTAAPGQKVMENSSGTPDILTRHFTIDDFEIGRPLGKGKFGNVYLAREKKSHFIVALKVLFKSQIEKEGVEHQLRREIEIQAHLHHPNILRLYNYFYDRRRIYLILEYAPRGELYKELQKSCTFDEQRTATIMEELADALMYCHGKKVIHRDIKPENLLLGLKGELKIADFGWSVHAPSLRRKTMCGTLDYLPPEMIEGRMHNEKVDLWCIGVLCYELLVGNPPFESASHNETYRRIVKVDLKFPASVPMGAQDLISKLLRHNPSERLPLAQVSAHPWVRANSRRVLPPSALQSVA
Sequence of JAK1 (h) (P23458 whole entry): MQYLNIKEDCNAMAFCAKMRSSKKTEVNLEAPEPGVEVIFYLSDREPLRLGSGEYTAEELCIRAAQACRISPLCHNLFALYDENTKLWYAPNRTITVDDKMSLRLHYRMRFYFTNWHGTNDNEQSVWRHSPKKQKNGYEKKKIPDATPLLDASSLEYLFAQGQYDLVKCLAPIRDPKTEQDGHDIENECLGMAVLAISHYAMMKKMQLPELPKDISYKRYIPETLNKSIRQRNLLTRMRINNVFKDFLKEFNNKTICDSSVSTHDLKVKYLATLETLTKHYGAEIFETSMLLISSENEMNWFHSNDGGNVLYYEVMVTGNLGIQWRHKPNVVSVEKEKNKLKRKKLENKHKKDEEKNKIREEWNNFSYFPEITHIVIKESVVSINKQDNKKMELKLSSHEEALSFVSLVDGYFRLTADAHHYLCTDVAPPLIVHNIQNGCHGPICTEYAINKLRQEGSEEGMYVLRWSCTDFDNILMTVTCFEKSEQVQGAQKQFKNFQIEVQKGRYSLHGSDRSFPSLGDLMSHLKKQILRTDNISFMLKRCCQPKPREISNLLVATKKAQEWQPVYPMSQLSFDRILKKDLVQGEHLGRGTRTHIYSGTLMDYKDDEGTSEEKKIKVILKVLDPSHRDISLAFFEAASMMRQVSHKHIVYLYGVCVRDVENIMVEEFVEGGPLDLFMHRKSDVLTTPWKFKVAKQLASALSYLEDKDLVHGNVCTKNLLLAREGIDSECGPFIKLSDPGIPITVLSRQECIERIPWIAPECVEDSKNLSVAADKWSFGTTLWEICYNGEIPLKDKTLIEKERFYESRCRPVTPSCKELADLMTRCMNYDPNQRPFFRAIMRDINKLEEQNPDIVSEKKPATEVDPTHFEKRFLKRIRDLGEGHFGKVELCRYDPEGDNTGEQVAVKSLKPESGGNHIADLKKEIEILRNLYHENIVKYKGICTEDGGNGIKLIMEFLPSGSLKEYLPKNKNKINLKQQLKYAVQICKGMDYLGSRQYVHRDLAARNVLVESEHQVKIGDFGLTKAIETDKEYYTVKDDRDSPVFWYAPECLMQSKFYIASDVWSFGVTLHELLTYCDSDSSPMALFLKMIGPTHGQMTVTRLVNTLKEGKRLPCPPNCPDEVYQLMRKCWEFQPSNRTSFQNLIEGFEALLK
Sequence of FLT3 (h) (P36888 27-993): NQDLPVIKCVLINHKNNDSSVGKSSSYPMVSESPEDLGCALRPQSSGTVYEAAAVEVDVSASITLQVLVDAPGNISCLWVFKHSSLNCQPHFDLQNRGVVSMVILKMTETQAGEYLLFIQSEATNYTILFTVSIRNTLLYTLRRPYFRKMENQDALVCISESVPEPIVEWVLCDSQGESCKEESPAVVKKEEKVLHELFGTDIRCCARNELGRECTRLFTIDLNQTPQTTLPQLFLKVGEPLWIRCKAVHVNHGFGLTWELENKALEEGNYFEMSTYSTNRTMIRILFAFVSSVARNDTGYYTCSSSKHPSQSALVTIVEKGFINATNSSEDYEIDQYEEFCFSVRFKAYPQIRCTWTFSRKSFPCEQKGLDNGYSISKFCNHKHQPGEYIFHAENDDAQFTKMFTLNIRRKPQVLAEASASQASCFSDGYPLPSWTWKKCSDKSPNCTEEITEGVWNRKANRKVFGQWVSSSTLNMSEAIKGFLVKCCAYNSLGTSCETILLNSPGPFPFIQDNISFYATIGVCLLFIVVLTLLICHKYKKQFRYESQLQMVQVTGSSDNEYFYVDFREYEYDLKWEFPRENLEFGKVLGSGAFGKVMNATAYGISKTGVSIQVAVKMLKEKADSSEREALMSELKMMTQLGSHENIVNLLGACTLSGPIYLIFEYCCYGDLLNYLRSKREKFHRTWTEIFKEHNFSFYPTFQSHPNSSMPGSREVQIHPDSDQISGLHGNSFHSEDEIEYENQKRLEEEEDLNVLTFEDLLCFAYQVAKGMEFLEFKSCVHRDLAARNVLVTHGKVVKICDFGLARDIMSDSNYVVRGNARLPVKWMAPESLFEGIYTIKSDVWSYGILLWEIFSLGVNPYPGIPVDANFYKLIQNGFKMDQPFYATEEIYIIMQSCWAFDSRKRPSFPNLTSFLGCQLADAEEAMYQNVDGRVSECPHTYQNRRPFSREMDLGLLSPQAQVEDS

Turning to `COc1ccc(-n2cc(Nc3ncc(Cl)c(NC4CC5CN(C(=O)CC#N)CC5C4)n3)cn2)cn1` (centres unmarked) [Ex. 10, 3-(5-((5-chloro-2-((1-(6-methoxypyridin-3-yl)-1H-pyrazol-4-yl)amino)pyrimidin-4-yl)amino)hexahydrocyclopenta[c]pyrrol-2(1H)-yl)-3-oxopropanenitrile], the IC50 at JAK1 (h) was below 0.3 nM; at JAK2 (h) it was 16 nM; at Aurora-A (h), 4 nM.
In the case of `CC(C)(O)Cn1cc(Nc2ncc(Cl)c(NC3CCC4(CC3)CCN(S(C)(=O)=O)CC4)n2)cn1` [Ex. 37, 1-(4-((5-chloro-4-((3-(methylsulfonyl)-3-azaspiro[5.5]undecan-9-yl)amino)pyrimidin-2-yl)amino)-1H-pyrazol-1-yl)-2-methylpropan-2-ol], on JAK1 (h), it took 2 nM to reach half-maximal inhibition (IC50). For the same compound, in data set [1], the half-life at 5 μM was 54.3 min and the intrinsic metabolic clearance (CLint scaled) at 5 μM was 32 mL/min/kg. In addition, in data set [2], the “Clearance (CL) after iv dosing” value is given as 1.76 L/h/kg, the F stood at 53.6%, the AUC(0-t) turned out to be 604 ng·h/mL and the half-life is 75 min. The Vd in data set [2] is 2.61 L/kg. Moreover, on JAK2 (h), the IC50 came to 131 nM. Also, in data set [3], the half-life at 5 μM came out at 70.5 min and the CLint scaled at 5 μM was 35.2 mL/min/kg. On Aurora-A (h), this compound displayed an IC50 of 71 nM.
Regarding `CCNC(=O)N1CC2CC(Nc3nc(Nc4cnn(C)c4)ncc3Cl)CC2C1` (centres unmarked) [Ex. 18, 5-((5-chloro-2-((1-methyl-1H-pyrazol-4-yl)amino)pyrimidin-4-yl)amino)-N-ethylhexahydrocyclopenta[c]pyrrole-2(1H)-carboxamide], the IC50 turned out to be 12 nM against JAK1 (h); 1020 nM against FLT3 (h); 142 nM against JAK2 (h); 2 nM on Aurora-B (h); 11 nM at Aurora-A (h). The half-life at 5 μM in data set [1] is 145 min; in data set [3], 9.46 min. Besides, the figures for the CLint scaled at 5 μM in data set [1] and in data set [3] were 12 mL/min/kg and 263 mL/min/kg, respectively.
For the compound `CCOC(=O)N1CC2CC(Nc3nc(Nc4cnn(C)c4)ncc3Cl)CC2C1` (centres unmarked) [Ex. 15, ethyl 5-((5-chloro-2-((1-methyl-1H-pyrazol-4-yl)amino)pyrimidin-4-yl)amino)hexahydrocyclopenta[c]pyrrole-2(1H)-carboxylate], the IC50 at JAK1 (h) is 8 nM; against FLT3 (h), 503 nM; against JAK2 (h), 136 nM; on Aurora-B (h), 2 nM; against Aurora-A (h) it was 10 nM.
Take `CC(O)Cn1cc(Nc2ncc(Cl)c(NC3CC4CN(S(C)(=O)=O)CC4C3)n2)cn1` (centres unmarked) [Ex. 38, 1-(4-((5-chloro-4-((2-(methylsulfonyl)octahydrocyclopenta[c]pyrrol-5-yl)amino)pyrimidin-2-yl)amino)-1H-pyrazol-1-yl)propan-2-ol]: at JAK1 (h), the IC50 amounted to 1 nM. Further, in data set [1], the half-life at 5 μM was determined as 67.1 min and the CLint scaled at 5 μM is 25.9 mL/min/kg. Further, in data set [2], the “Clearance (CL) after iv dosing” value turned out to be 3.77 L/h/kg, the F was found to be 35.3%, the AUC(0-t) turned out to be 270 ng·h/mL and the half-life was 25.2 min. Besides, in data set [2], the Vd amounted to 1.65 L/kg. Moreover, the half-maximal inhibitory concentration (IC50) at Aurora-B (h) was 1 nM. In data set [3], the half-life at 5 μM worked out at 45.5 min and the CLint scaled at 5 μM is 54.6 mL/min/kg. Half-maximal inhibition against Aurora-A (h) (IC50) was put at 0.8 nM.
Take `Cn1cc(Nc2ncc(Cl)c(NC3CC4CN(C(=O)NC5CC5)CC4C3)n2)cn1` (centres unmarked) [Ex. 19, 5-((5-chloro-2-((1-methyl-1H-pyrazol-4-yl)amino)pyrimidin-4-yl)amino)-N-cyclopropylhexahydrocyclopenta[c]pyrrole-2(1H)-carboxamide]: at JAK1 (h), the IC50 is 23 nM. For the same compound, in data set [1], the half-life at 5 μM turned out to be 178 min and the CLint scaled at 5 μM is 9.78 mL/min/kg. In addition, in data set [2], the “Clearance (CL) after iv dosing” value is 3.82 L/h/kg, the F is 24.0%, the AUC(0-t) was found to be 263 ng·h/mL and the half-life was 21 min. In data set [2], the Vd came out at 0.95 L/kg. On Aurora-B (h), this compound registered an IC50 of 1 nM. Further, in data set [3], the half-life at 5 μM was determined as 96.9 min and the CLint scaled at 5 μM was 25.6 mL/min/kg. The same compound came in with an IC50 against Aurora-A (h) of 8 nM.
For the compound `CC(C)(O)Cn1cc(Nc2ncc(Cl)c(NC3CC4CN(S(C)(=O)=O)CC4C3)n2)cn1` (centres unmarked) [Ex. 39, 1-(4-((5-chloro-4-((2-(methylsulfonyl)octahydrocyclopenta[c]pyrrol-5-yl)amino)pyrimidin-2-yl)amino)-1H-pyrazol-1-yl)-2-methylpropan-2-ol], on JAK1 (h), the 50% inhibitory concentration (IC50) was 2 nM. In data set [1], the half-life at 5 μM came to 49.6 min and the CLint scaled at 5 μM was 35 mL/min/kg. In data set [2], the “Clearance (CL) after iv dosing” value is listed as 5.76 L/h/kg, the F is listed as 40.5%, the AUC(0-t) is 295 ng·h/mL and the half-life was 38.4 min. Further, the Vd in data set [2] was determined as 1.88 L/kg. This compound also registered an IC50 against Aurora-B (h) of 1 nM. Also, in data set [3], the half-life at 5 μM turned out to be 39.2 min and the CLint scaled at 5 μM is 63.3 mL/min/kg. Moreover, on Aurora-A (h), the midpoint of inhibition, the IC50, lay at 2 nM.
As for `N#CCC(=O)N1CC2CC(Nc3nc(Nc4cnn(-c5ccccn5)c4)ncc3Cl)CC2C1` (centres unmarked) [Ex. 7, 3-(5-((5-chloro-2-((1-(pyridin-2-yl)-1H-pyrazol-4-yl)amino)pyrimidin-4-yl)amino)hexahydrocyclopenta[c]pyrrol-2(1H)-yl)-3-oxopropanenitrile], the IC50 against JAK1 (h) worked out at 0.6 nM; against JAK2 (h), 20 nM; on Aurora-A (h), 8 nM.
